Assays:
[1] = system: total tau (TAU5) in A152T neurons; experiment: Western blot of total tau in A152T neurons; assay type: cell-based, human; details: pre-treatment 6 hr then 1 μM QC-01–175 for 18 hr, western blot
From the text: (§1) Cells from individuals carrying the tau risk variant A152T (c.1407G > A; NCBI RefSeq NM_001123066, rs143624519), the autosomal dominant mutation P301L (c.C1907T; NCBI NM_001123066, rs63751273), or age-matched non-mutant WT tau were employed in this study (Figure 2—source data 1). Dermal fibroblasts from the tau-P301L carrier and the healthy individual were generated from a skin biopsy from subjects within the MGH Frontotemporal Disorders Unit as part of the MGH Neurodegeneration Repository. Approval for human subjects’ work was obtained under a Partners/MGH-approved IRB Protocol (#2010P001611/MGH). Fibroblasts were reprogrammed into iPSCs, which were subsequently converted into cortical-enriched neural progenitor cells (NPCs) and differentiated into neuronal cells as previously described ([Almeida et al., 2012]; [Seo et al., 2017]; [Silva et al., 2016]; [Sheridan et al., 2011]) (Silva MC, Manuscript in preparation, 2019). Briefly, cells were cultured in 6-well (Fisher Scientific Corning, Pittsburgh, PA) or 96-well (Fisher Scientific Corning) plates coated with poly-ornithine (20 μg/mL in water, Sigma, St. Louis, MO) and laminin (5 μg/mL in PBS, Sigma) (POL-coated), in DMEM/F12-B27 media [70% DMEM (Gibco, Carlsbad, CA), 30% Ham’s-F12 (Fisher Scientific Corning), 2% B27 (Gibco), 1% penicillin-streptomycin (Gibco)]. Media was supplemented with EGF (20 ng/mL, Sigma), FGF (20 ng/mL, Stemgent, Cambridge, MA) and heparin (5 μg/mL, Sigma), to promote NPC proliferation and expansion. The growth factors were withdrawn to promote neural differentiation for 6 to 8 weeks, with half media change two times per week. Cell lines’ identity was authenticated by SANGER sequencing, karyotyping and ACGH analysis at different stages of culture maintenance from iPSC to NPC. All working cell lines tested negative for mycoplasma contamination.
(§2) Compound treatment in six-well plates was performed in 2 mL media volume by removing 1 mL of conditioned media from the culture and adding 1 mL of new media pre-mixed with the compound at the appropriate 2X concentration, followed by incubation at 37°C for the designated period of time. Compound treatment in 96-well plates was performed in 100 μL media volume by adding compound directly to each well, followed by incubation at 37°C. When testing the effect of drug pre-treatment, the first compound was added as described above for the period of time needed, and then QC-01–175 was added directly onto the media without media exchange.
(§3) Neurons differentiated in six-well plates for 6 weeks were washed and collected in PBS, lysed in RIPA buffer (Boston Bio-Products, Boston, MA) supplemented with 2% SDS (Sigma), protease inhibitors cocktail (Roche Complete Mini tablets, Mannheim, Germany), and phosphatase inhibitors cocktail (Sigma), followed by water sonication (Bransonic Ultrasonic Baths, Thomas Scientific, Danbury, CT) and 20,000 g centrifugation for 20 min. Supernatants were transferred to new tubes and total protein concentration was quantified with the Pierce BCA Protein Assay Kit (ThermoFisher Scientific, Carlsbad, CA). Human recombinant tau protein ladder was purchased from Sigma. Electrophoresis were performed with the Novex NuPAGE SDS-PAGE Gel System (Invitrogen, Carlsbad, CA), by running 10 μg of total protein (pre-boiled in SDS-DTT loading buffer, NEB, Ipswich, MA) on pre-cast SDS-PAGE. Gels were transferred onto PVDF membranes (EMD Millipore) using standard procedures. Membranes were blocked in 5% BSA (Sigma) in Tris-buffered saline with Tween-20 (TBST/Biorad, Hercules, CA) for 2 hr, incubated overnight with primary antibody (see antibody section) at 4°C, followed by corresponding HRP-linked secondary antibody incubation (Cell Signaling Technology, Danvers, MA). […]

[2] = molecular target: T1, recombinant human tau Tau-441(WT) (Homo sapiens, UniProt P10636); experiment: Bio-layer interferometry (BLI) biosensor assay, tau WT; assay type: binding; details: BLI steady-state analysis, immobilized biotinylated tau; Figure 1—figure supplement 1B
T1 construct: biotin (chemical label, NHS-PEG4); purchased SignalChem T08-54BN; host or cells: E. coli
T1 sequence (P10636 1-441 isoform P10636-8): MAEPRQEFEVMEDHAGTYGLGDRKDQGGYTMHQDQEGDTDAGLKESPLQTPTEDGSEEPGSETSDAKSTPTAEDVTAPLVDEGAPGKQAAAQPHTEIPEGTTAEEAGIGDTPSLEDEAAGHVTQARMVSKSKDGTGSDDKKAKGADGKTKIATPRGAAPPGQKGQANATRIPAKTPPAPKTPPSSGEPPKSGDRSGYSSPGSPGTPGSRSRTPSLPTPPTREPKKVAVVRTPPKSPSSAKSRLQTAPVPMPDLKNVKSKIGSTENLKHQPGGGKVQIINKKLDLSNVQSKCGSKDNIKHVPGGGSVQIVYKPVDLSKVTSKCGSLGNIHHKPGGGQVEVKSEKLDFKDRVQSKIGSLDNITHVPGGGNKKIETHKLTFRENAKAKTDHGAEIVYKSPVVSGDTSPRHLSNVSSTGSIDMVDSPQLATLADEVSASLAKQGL
Description: (§4) BLI was performed in the Octet Red384 instrument (ForteBio, Fremont CA, USA) with 1X PBS and 0.01% Brij-35 as the assay buffer. […] The biotinylated protein samples for BLI were purified in 1X phosphate buffered saline (PBS). Streptavidin (SA) sensors were used to measure the biophysical interaction between the small molecules and biotinylated tau. Prior to the initiation of BLI, the SA sensors were soaked by dipping in 200 μL of assay buffer in a 96-well Greiner Bio-One Black flat bottom plate (Greiner, Monroe NC, USA Cat.655209). The assay was performed in 80 μL volume in Greiner Bio-One 384-well black flat bottom PP plates (Greiner, Cat.781209) with an initial baseline step, followed by loading of 250 nM biotinylated tau protein. The small molecules samples and recombinant proteins were arranged in the 384-well plate according to a plate map recommended for the eight-channel mode kinetic analysis, where the sensors move from low to high concentration of small molecule samples. Subsequent steps included a second baseline (120 s), followed by association (240 s) and dissociation (240 s) cycles. […] When Req option is selected, Fortebio’s software calculates affinity constants based on the Req values determined from the curve fits. […]

[3] = molecular target: T2, recombinant human tau Tau-441(P301L) (Homo sapiens, UniProt P10636, P618L); experiment: Bio-layer interferometry (BLI) biosensor assay, tau P301L; assay type: binding; details: BLI steady-state analysis, immobilized biotinylated tau; Figure 1—figure supplement 1B
T2 construct: biotin (chemical label, NHS-PEG4); purchased SignalChem T08-56FN; host or cells: E. coli
T2 sequence (P10636 1-441 isoform P10636-8 P301L): as the sequence (P10636 1-441 isoform P10636-8) above, with P301L counted along it
Description: as §4

[4] = molecular target: T3, recombinant human tau Tau-441(A152T) (Homo sapiens, UniProt P10636, A469T); experiment: Bio-layer interferometry (BLI) biosensor assay, tau A152T; assay type: binding; details: BLI steady-state analysis, immobilized biotinylated tau; Figure 1—figure supplement 1B; read-out: KD, Tau A152T
T3 construct: biotin (chemical label, NHS-PEG4); purchased SignalChem T08-56VN; host or cells: E. coli
T3 sequence (P10636 1-441 isoform P10636-8 A152T): as the sequence (P10636 1-441 isoform P10636-8) above, with A152T counted along it
Description: BLI was performed in the Octet Red384 instrument (ForteBio, Fremont CA, USA) with 1X PBS and 0.01% Brij-35 as the assay buffer. […] The biotinylated protein samples for BLI were purified in 1X phosphate buffered saline (PBS). Streptavidin (SA) sensors were used to measure the biophysical interaction between the small molecules and biotinylated tau. Prior to the initiation of BLI, the SA sensors were soaked by dipping in 200 μL of assay buffer in a 96-well Greiner Bio-One Black flat bottom plate (Greiner, Monroe NC, USA Cat.655209). The assay was performed in 80 μL volume in Greiner Bio-One 384-well black flat bottom PP plates (Greiner, Cat.781209) with an initial baseline step, followed by loading of 250 nM biotinylated tau protein. The small molecules samples and recombinant proteins were arranged in the 384-well plate according to a plate map recommended for the eight-channel mode kinetic analysis, where the sensors move from low to high concentration of small molecule samples. Subsequent steps included a second baseline (120 s), followed by association (240 s) and dissociation (240 s) cycles. […] Data analysis was performed using Data Acquisition HT 11.0 software following reference subtraction (an average of two sensors with DMSO) using a 1:1 binding model and an individual fit of each replicate. The equilibrium dissociation constant (KD) was estimated using data at equilibrium from each available small molecule concentration with steady-state analysis. The instrument manufacturer (Fortebio, article #137) recommends the steady state option for analyzing interactions that are either low affinity or very fast on-and-off affinity rates. […] When Req option is selected, Fortebio’s software calculates affinity constants based on the Req values determined from the curve fits. In the steady-state analysis, Req is plotted against the small molecule concentration to infer the Rmax. […] As per the instrument manufacturer’s instructions, if all curves have reached equilibrium, these two sets of values correspond to ‘Response,’ and Req values should match. […]

monoamine oxidase (MAO) = experiment: Monoamine oxidase (MAO-Glo) activity assay; assay type: biochemical; details: four parameter fit; for IC50: 60-min reaction, read-out: MAO Dose Response IC50
Description: The Monoamine oxidase (MAO) activity measurements were performed using a MAO-Glo assay kit (Promega, Madison, WI), in a 384-well plate (Proxiplate 384 Plus, Perkin Elmer, Waltham, MA) with the miniaturization of final assay volume to 20 µL, as per the manufacturer’s instructions. In brief, MAO reactions were terminated after a 60-min enzymatic reaction, by the addition of reconstituted Luciferin Detection Reagent. Following a 20-min incubation with the detection reagent, the luminescence was measured using a multi-label plate reader (Envision, Perkin Elmer). IC50 values were estimated by fitting percentage inhibition vs. compound concentration in a variable slope (four parameter) fit.

[5] = system: P-tau S396 in A152T neurons; experiment: Western blot of P-tau S396 in A152T neurons; assay type: cell-based, human; details: 24 hr, across biological replicates
From the text: as §1, §2, §3

For `NS(=O)(=O)OC[C@@H]1C[C@@H](n2ccc3c(N[C@H]4CCc5ccccc54)ncnc32)C[C@@H]1O` [MLN4924, reference compound], the “effect of 6 hr pre-treatment on QC-01–175-mediated tau degradation (total tau and P-tau S396)” value (“effect … (total tau and P-tau S396)” below) [1] was “caused a concentration-dependent rescue of the effect of QC-01–175”.

`CC(C)C[C@H](NC(=O)[C@H](CCc1ccccc1)NC(=O)CN1CCOCC1)C(=O)N[C@@H](Cc1ccccc1)C(=O)N[C@@H](CC(C)C)C(=O)[C@@]1(C)CO1` [carfilzomib, Carfilzomib, reference compound] was tested, and the “effect … (total tau and P-tau S396)” value [1] was “caused a concentration-dependent rescue of the effect of QC-01–175”.

With `COc1cc(OCc2ccccn2)ccc1/C=C/c1cc(/C=C/c2ccc3cc[nH]c3c2)n[nH]1` [PE859, reference compound] the Kd [2] was 22 ± 2.78 µM, the Kd [3] was 8.8 ± 1.11 µM and the Kd [4] was 22.1 ± 3.26 µM.

`CO/C1=C\C(C)=C\[C@@H](C)[C@@H](O)[C@@H](C)C/C(C)=C/C=C/[C@H](OC)[C@@H]([C@@H](C)[C@@H](O)[C@H](C)[C@@]2(O)C[C@@H](O)[C@H](C)[C@@H](C(C)C)O2)OC1=O` [bafilomycin A1, Bafilomycin A1, reference compound] was tested, and the “effect … (total tau and P-tau S396)” value [1] was “did not reverse the degrader effect and further promoted tau clearance”.

`Nc1cccc2c1C(=O)N(C1CCC(=O)NC1=O)C2=O` (centres unmarked) [Pomalidomide] was tested, and the IC50 (monoamine oxidase (MAO)) was > 50 µM and the “MAO Dose Response Hill Slope” value (monoamine oxidase (MAO)) was 0.108.

`N[C@@H]1C[C@H]1c1ccccc1` (racemic) [Parnate, Tranylcypromine] was tested, and the IC50 (monoamine oxidase (MAO)) was 0.057 µM, the “MAO Dose Response Hill Slope” value (monoamine oxidase (MAO)) was 1.504 and the “MAO Dose Response Log IC50” value (monoamine oxidase (MAO)) was -1.240.

With `Nc1cccc2c1CN(C1CCC(=O)NC1=O)C2=O` (centres unmarked) [lenalidomide, Lenalidomide, reference compound] the “up-regulation of P-tau S396” value ([5]; 1 μM) was ~ 30%, the “up-regulation of P-tau S396” value ([5]; 10 μM) was ~90% and the “effect … (total tau and P-tau S396)” value [1] was “reversed QC-01–175-mediated tau degradation in a concentration-dependent manner”.

From paper PMC6450673, “Targeted degradation of aberrant tau in frontotemporal dementia patient-derived neuronal cell models” (eLife, 2019)
